Assay: Solubility of the product in water (stirred with water, aqueous phase analysed by HPLC)
Format: physicochemical
Settings: for content of the product in the aqueous phase (solubility in water): HPLC; for water-solubility, overall rating in words: summary statement
Method: The solubility of the product in water was determined as follows:
The product was stirred with water for three days at room temperature and the composition of the aqueous phase obtained in this way was determined using HPLC. The aqueous phase contained 6.7 wt % of the product.
A further sample of the product was stirred with water for three hours at 80° C. and cooled back to room temperature. The composition of the aqueous phase obtained in this way was subsequently determined using HPLC. The aqueous phase contained more than 10 wt % of the product.
The product was stirred with water for two days at room temperature and the composition of the aqueous phase obtained in this way was determined using HPLC. The aqueous phase contained 6.2 wt % of the product.
A further sample of the product was stirred with water for one hour at 60° C. and cooled back to room temperature. The composition of the aqueous phase obtained in this way was subsequently determined using HPLC. The aqueous phase contained 8.1 wt % of the product.
The product was stirred with water for three days at room temperature and the composition of the aqueous phase obtained in this way was determined using HPLC.
A further sample of the product was stirred with water for three hours at 80° C. and cooled to room temperature. The composition of the aqueous phase obtained in this way was subsequently determined using HPLC.

[1] = stirred with water for three days at room temperature
[2] = stirred with water for three hours at 80° C. and cooled back to room temperature

Compound | content of the product in the aqueous phase (solubility in water) [1] | content of the product in the aqueous phase (solubility in water) [2] | water-solubility, overall rating in words | content of the product in the aqueous phase (solubility in water) (stirred with water for one hour at 60° C. and cooled back to room temperature) [wt %] | content of the product in the aqueous phase (solubility in water) (stirred with water for two days at room temperature) [wt %]
C=C(C)C(=O)NCCCCCCNC(=O)CC#N [Comparative Example 3, N-(2-cyanoethylamidohexyl)methacrylamide, reference compound] | virtually insoluble in water | virtually insoluble in water | very low water-solubility |  | 
C=C(C)C(=O)NCCNC(=O)CC#N [Example 3, N-(2-cyanoethylamidoethyl)methacrylamide] | 6.7 wt % | more than 10 wt % | high water-solubility |  | 
C=C(C)C(=O)NCCCCNC(=O)CC#N [Example 5, N-(2-cyanoethylamidobutyl)methacrylamide] |  |  | high water-solubility | 8.1 | 6.2

From US20210332005A1, “CH-ACIDIC M[…] FOR THE PREPARATION OF AQUEOUS POLYMER DISPERSIONS” (EVONIK OPERATIONS GMBH, priority 2018, published 2021)
